In patent US10350210B2, “EGFR and ALK dual inhibitor” (PRECEDO PHARMACEUTICALS CO., LTD, priority 2015, dated 2019):
“Also recorded” adds a separate entry of the source.

Experiments:
[1] = system: EGFR protein (EGFR L858R, H3255); test: Effect on signaling pathway in cells, H3255; type: cell-based; settings: 4 h
Source text: (§1) In four cell lines (all purchased from ATCC) including non-small cell lung cancer cell line A549 (expressing wild-type EGFR gene), non-small cell lung cancer cell line H1975 (expressing EGFR L858R/T790M double mutant gene), non-small cell lung cancer cell line H3255 (expressing EGFR L858R mutant gene) and non-small cell lung cancer cell line PC-9 (expressing EGFR delE746_A750 mutant gene), the effect of Compound 1 on EGFR or other protein kinases related to signaling pathways of EGFR such as Stat3, AKT, ErK, eIF4E, 4EBP1, P70S6K was assessed by assaying a number of cellular biochemical and functional endpoints. […] The effect of Compound 1 on phosphorylation of Stat3Y705, AKT T308, AKT 5473, Erk T202/204, EGFR Y1068, P70S6K Thr389, eIF4E Ser209, Erk T202/204, 4EBP1 (Thr37/46) in these cell lines was assayed (FIGS. 1a to 1d).

[2] = system: EGFR protein (EGFR delE746_A750, PC-9); test: Effect on signaling pathway in cells, PC-9; type: cell-based, human; settings: PC-9 (EGFR delE746_A750), 4 h
Source text: as §1

[3] = system: EGFR protein (wild-type EGFR, A549); test: Effect on signaling pathway in cells, A549; type: cell-based, human; settings: 0.03-3 μM, 4 h
Source text: as §1

PC-9 = test: Effect on cell cycle (PI staining, flow cytometer), PC-9; type: cell-based, human; settings: PC-9 (EGFR delE746_A750), 24 hours
Source text: (§2) In order to study which growth phase the cell was halted after administration of the drugs, five cell lines including non-small cell lung cancer cell line A549 (expressing wild-type EGFR gene), non-small cell lung cancer cell line H1975 (expressing EGFR L858R/T790M double mutant gene), non-small cell Lung cancer cell line PC-9 (expressing EGFR delE746_A750 mutant gene), non-small cell lung cancer cell line H3255 (expressing EGFR L858R mutant gene) and non-small cell lung cancer cell NCI-H3122 (expressing ALK gene) were tested for effect of Compound 1 on cell cycle distribution. Two cell lines including non-small cell lung cancer cell NCI-H3122 (expressing ALK gene) and non-small cell lung cancer cell H1975 (expressing EGFR L858R/T790M double mutant gene) were tested for effect of Compound 10 on cell cycle distribution. […]

[4] = system: non-small cell lung cancer cell PC-9 subcutaneous tumors; test: Mouse tumor model of non-small cell lung cancer cell PC-9; type: in vivo; settings: PC-9 tumor model; for tumor inhibition rate: Bal b/c mice, after 8 days of administration
Description: 24 Bal b/c female mice, 4-6 weeks old, were purchased from Shanghai SLAC Laboratory Animal Co., Ltd., and maintained in an SPF laboratory. Drinking water and bedding were both sterilized by autoclaving. All operations involving the mice were performed under aseptic conditions. At day 0, 5×10^6 non-small cell lung cancer cells PC9 (purchased from ATCC) were injected subcutaneously into the left flank of all mice. At day 15, all mice were divided into four groups (6 mice per group), and the first group of mice were orally administered with methyl cellulose (HKI) solvent, the second group of mice were orally administered with Compound 1 at a dose of 25 mg/kg mouse weight, the third group of mice were orally administered with Compound 1 at a dose of 50 mg/kg mouse weight, and the fourth group of mice were orally administered with Compound 1 at a dose of 100 mg/kg mouse weight daily. Starting from the administration, the length/width of the subcutaneous tumor was measured daily with a vernier caliper, and the weight of the mice was recorded daily to observe the effect of Compound 1 on the body weight of the mice. The mice were sacrificed at day 36 and the subcutaneous tumors were collected. The tumors were weighed, and then the tumor tissues were used to prepare protein lysates for use. The growth trend of the subcutaneous tumor within 16-36 days was plotted, wherein the tumor volume was calculated as length×width×width/2 mm^3.

H3255 = test: Effect on cell cycle (PI staining, flow cytometer), H3255; type: cell-based; settings: H3255 (EGFR L858R), 24 hours
Source text: as §2

## C=CC(=O)Nc1cc(Nc2ncc(Cl)c(Nc3ccccc3S(=O)(=O)C(C)C)n2)c(OC)cc1N1CCN(CC)CC1 [Compound 1, N-(5-(5-chloro-4-(2-(isopropylsulfonyl)phenylamino)pyrimidin-2-ylamino)-2-(4-ethylpiperazin-1-yl)-4-methoxyphenyl)acrylamide]
[1]
  concentration able to significantly inhibit the phosphorylation of EGFR protein (also affects AKT and ERK phosphorylation): 0.3 µM
[2]
  concentration able to significantly inhibit the phosphorylation of EGFR protein (also affects AKT and ERK phosphorylation): 0.3 µM
[3]
  effect on phosphorylation of EGFR protein and of STAT3, S6K, AKT, ERK, eIF4E: little effect
PC-9
  effect on cell cycle distribution: halt the cells in G0-G1 phase
[4]; oral daily 25 mg/kg
  tumor inhibition rate: 89.8%
[4]; oral daily 50 mg/kg
  tumor inhibition rate: 95.1%
  body weight of the mice: did not decrease
[4]; oral daily 100 mg/kg
  tumor inhibition rate: 98.7%
[4]; oral daily 25 mg/kg, 25 mg/kg
  body weight of the mice: barely affect the body weight; also recorded: did not decrease
H3255
  effect on cell cycle distribution: halt the cells in G0-G1 phase
